# Target: T1, HPPK (6-Hydroxymethyl-7,8-dihydropterin pyrophosphokinase) (Escherichia coli, UniProt P26281)
# T1 construct: gene folK; recombinant HPPK from pET28A, Ni-NTA purified
# T1 sequence (P26281 2-159): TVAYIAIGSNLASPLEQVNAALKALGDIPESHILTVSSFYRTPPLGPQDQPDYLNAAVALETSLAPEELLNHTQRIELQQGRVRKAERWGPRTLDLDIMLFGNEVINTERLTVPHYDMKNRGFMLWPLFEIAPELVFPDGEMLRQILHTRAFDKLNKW
# Assay: KinaseGlo luminescence ATP-depletion assay; substrate starts the reaction and relieves CD15-3 inhibition
# Format: biochemical
structure (smiles),measurement,value
"Nc1nc2c(c(=O)[nH]1)N=C(CO)CN2 [6-Hydroxymethyl-7,8-dihydropterin]",KinaseGlo luminescence ATP-depletion assay; substrate starts the reaction and re,"HPPK reaction was initiated with the introduction of the substrate, 6-Hydroxymethyl-7,8-dihydropterin in the assay buffer"

# — paper PMC10256842, “Empowering drug off-target discovery with metabolic and structural analysis” (Nature Communications, 2023)
